Test results from patent US20220325233A1, “MEDIUM SUPPLEMENT FOR HIGH-YIELD INDUSTRIAL CULTURE OF FASTIDIOUS ANAEROBES AND MEDIUM COMPOSITION CONTAINING THE SAME” (priority 2020, published 2022).

System: Akkermansia muciniphila EB-AMDK19 (KCTC 13761BP) strain
Assay: Growth (change in optical density, ΔOD600) in anaerobic batch culture
Format: cell-based
Conditions: for Growth (ΔOD600): after 72 hours of culture; for Growth (AOD 600): after 48 hours of culture
Description: In addition, in the following examples, the concentration of anaerobes (amount of biomass produced) was determined by measuring the optical density of the culture medium at 600 nm using a spectrophotometer during the culture period. ΔOD was calculated as the difference in absorbance between the initial stage of culture and after 48 hours (or 72 hours) of culture.
Based on soy casein digest broth (tryptic soy broth (TSB)), the optimal combination of substrates and components that can replace mucin was investigated.
Next, changes in the optical density (OD600) of the strain were measured, and the results of the measurement are shown in Table 3 below.
In addition, to find the optimal concentration of cobalamin, the strain was cultured while changing the concentrations of cobalamin, and then changes in the optical density (OD600) of the strain were measured.
In order to find the essential components necessary for high-concentration culture of anaerobes and an optimal combination thereof, the Akkermansia muciniphila strain was cultured in media having various combinations of components under the same conditions.
An experiment was performed in the same manner as in Example 1 above, except that the medium shown in Table 2 above were used and the kind of strain cultured was changed as shown in Table 7 below. Specifically, each Akkermansia muciniphila strain was inoculated into the medium at a ratio of 0.1% v/v, and then cultured at 37° C. under anaerobic conditions (90% N2, 5% CO2, and 5% H2) for 24 to 48 hours.

[1] = single vitamin added at 0.2 mg/L
[2] = single vitamin added at 0.1 mg/L

Compound: Cc1ncc(C[n+]2csc(CCO)c2C)c(N)n1 [Medium B1]
- Growth (ΔOD600) [1]: 0.352

Compound: Cc1cc2nc3c(=O)[nH]c(=O)nc-3n(C[C@H](O)[C@H](O)[C@H](O)CO)c2cc1C [Medium B2]
- Growth (ΔOD600) [2]: 0.334

Compound: O=C(O)c1cccnc1 [Medium B3]
- Growth (ΔOD600) [1]: 0.342

Compound: CC(C)(CO)[C@@H](O)C(=O)NCCC(=O)O [Medium B5]
- Growth (ΔOD600) [2]: 0.347

Compound: Cc1ncc(CO)c(CO)c1O [Medium B6]
- Growth (ΔOD600) (single vitamin added at 0.5 mg/L): 0.337

Compound: O=C(O)CCCC[C@@H]1SC[C@@H]2NC(=O)N[C@@H]21 [Medium B7]
- Growth (ΔOD600) (single vitamin added at 0.02 mg/L): 0.344

Compound: Nc1nc(=O)c2nc(CNc3ccc(C(=O)N[C@@H](CCC(=O)O)C(=O)O)cc3)cnc2[nH]1 [Medium B9]
- Growth (ΔOD600) (single vitamin added at 0.05 mg/L): 0.348

Compound: Nc1ccc(C(=O)O)cc1 [Medium B10]
- Growth (ΔOD600) [2]: 0.335

Compound: Cyanocobalamin
- Growth (AOD 600) (Cyanocobalamin 0.05 mg/L): 0.563 ± 0.012
- Growth (AOD 600) (Cyanocobalamin 0.1 mg/L): 0.576 ± 0.014
- Growth (AOD 600) (Cyanocobalamin 0.2 mg/L): 0.577 ± 0.008
- Growth (AOD 600) (Cyanocobalamin 0.5 mg/L): 0.575 ± 0.011
- Growth (AOD 600) (Cyanocobalamin 1 mg/L): 0.581 ± 0.003
- Growth (AOD 600) (Cyanocobalamin 5 mg/L): 0.571 ± 0.007
- optimal concentration in the medium (from Table 5 concentration series): 0.1 mg/L
- Growth (ΔOD600) [2]: 0.575
